Experimental findings from US9789114B2, “Compounds as HIF-1α inhibitors and manufacturing process thereof” (DONGGUK UNIVERSITY INDUSTRY-ACADEMIC COOPERATION FOUNDATION, priority 2011, dated 2017) are described below.

In the first experiment the test system is HIF-1α-mediated HRE transcriptional activity. In words: Assay for inhibition of HIF-1α-mediated transcriptional activity (HRE reporter assay). It counts as cell-based, human. As to conditions: HCT116 cells, 12 hours under hypoxia (1% O2). On the procedure:
<Experiment 1> Assay for Inhibition of HIF-1α-Mediated Transcriptional Activity (HRE Reporter Assay)
The compounds can be developed as anti-cancer drugs, because the compounds inhibiting HIF-1α-mediated HRE transcriptional activity induced by hypoxia can suppress the growth and metastasis of cancer.
Inhibitory effects of the compounds according to the present invention, from Formula I-1 to I-42, on HIF-1α-mediated transcriptional activity were evaluated using this assay. pGL3-HRE-luciferase vector was constructed as follows. Six copies of HRE (Hypoxia Responsive Element, 5′-ACGTG-3′) from human VEGF genes were inserted into the multi-cloning site of a pGL3-basic vector (Promega). A luciferase gene was used as a reporter gene.
In detail, HCT116(ATCC #CCL-247) human colon cancer cells were seeded in 48-well cell culture plates. The cells were co-transfected with 25 ng of pGL3-HRE-luciferase and 2.5 ng of Renila control vectors using Polyfect reagent next day. After 24 hours of incubation, the cells were incubated for an additional 4 hours with replaced cell culture media. The cells were treated with various concentrations (0, 1, 3, 5, 10, and 20 μM) of the above compounds according to the present invention and incubated for 12 hours under hypoxia (1% O2, 94% N2, and 5% CO2). The luciferase assay was performed using a dual-luciferase reporter assay system (Promega). After cell lysate preparation with RIPA buffer, induced luciferase activity under hypoxic conditions was determined to examine inhibitory effects of the compounds according to the present invention, from Formula I-1 to I-42, on HIF-1α-mediated transcriptional activity.
For the compound `CN1CCN(C(=O)COc2ccc(C34CC5CC(CC(C5)C3)C4)cc2)CC1.Cl` [Compound I-4, 4-(2-(4-(Adamantan-1-yl)phenoxy)acetyl)-1-methylpiperazin-1-ium chloride], the “Inhibitory activity against HIF-1α (10 μM)” value is “A (A(76˜100%))”.

Staying with this experiment, now noted: Homo sapiens, HCT-116, HCT116 cells, 12 hours under hypoxia (1% O2), read-out: Inhibitory activity against HIF-1α (10 μM).
For `CN(C)C(=O)COc1ccc(C23CC4CC(CC(C4)C2)C3)cc1` [Compound I-1, 2-(4-(Adamantan-1-yl)phenoxy)-N,N-dimethylacetamide], the inhibition at 10 µM was 51 to 75%.
Regarding `O=C(COc1ccc(C23CC4CC(CC(C4)C2)C3)cc1)NC1CC1` [Compound I-2, 2-(4-(Adamantan-1-yl)phenoxy)-N-cyclopropylacetamide], the inhibition at 10 µM was 76 to 100%.
Still for that read-out and setting: the value for `Cc1cc(C23CC4CC(CC(C4)C2)C3)ccc1OCC(=O)N1CCN(C)CC1` [Compound I-5, 2-(4-(Adamantan-1-yl)-2-methylphenoxy)-1-(4-methylpiperazin-1-yl)ethanone] was 76 to 100%.
Consider `Cc1cc(C23CC4CC(CC(C4)C2)C3)ccc1OCC(=O)NCCN(C)C` [Compound I-7, 2-(4-(Adamantan-1-yl)-2-methylphenoxy)-N-(2-(dimethylamino)ethyl)acetamide], for which the inhibition at 10 µM was 51 to 75%.
Take `O=C(CCOc1ccc(C23CC4CC(CC(C4)C2)C3)cc1)N1CCOCC1` [Compound I-9, 3-(4-(Adamantan-1-yl)phenoxy)-1-morpholinopropan-1-one]: the inhibition at 10 µM was 76 to 100%.
For `CN(C)CCNC(=O)CCOc1ccc(C23CC4CC(CC(C4)C2)C3)cc1` [Compound I-10, 3-(4-(Adamantan-1-yl)phenoxy)-N-(2-(dimethylamino)ethyl)propanamide], the inhibition at 10 µM lay within 26 to 50%.
With `Cc1cc(C23CC4CC(CC(C4)C2)C3)ccc1OCCC(=O)N1CCN(C)CC1` [Compound I-11, 3-(4-(Adamantan-1-yl)-2-methylphenoxy)-1-(4-methylpiperazin-1-yl)propan-1-one], the inhibition at 10 µM lay in the range of 76 to 100%.
With `Cc1cc(C23CC4CC(CC(C4)C2)C3)ccc1OCCC(=O)N1CCOCC1` [Compound I-12, 3-(4-(Adamantan-1-yl)-2-methylphenoxy)-1-morpholinopropan-1-one], the inhibition at 10 µM is 76 to 100%.
Same read-out and setting: next, `Cc1cc(C23CC4CC(CC(C4)C2)C3)ccc1OCCC(=O)NCCN(C)C` [Compound I-13, 3-(4-(Adamantan-1-yl)-2-methylphenoxy)-N-(2-(dimethylamino)ethyl)propanamide]: 51 to 75%; `CN1CCN(C(=O)CCCOc2ccc(C34CC5CC(CC(C5)C3)C4)cc2)CC1` [Compound I-14, 4-(4-(Adamantan-1-yl)phenoxy)-1-(4-methylpiperazin-1-yl)butan-1-one]: 51 to 75%; `C[N+]1(C)CCN(C(=O)COc2ccc(C34CC5CC(CC(C5)C3)C4)cc2)CC1` [Compound I-15, 4-(2-(4-(Adamantan-1-yl)phenoxy)acetyl)-1,1-dimethylpiperazine-1-ium iodide]: 26 to 50%.
Regarding `Cc1cc(C23CC4CC(CC(C4)C2)C3)ccc1OCC(=O)NCC[N+](C)(C)C` [Compound I-17, 2-(2-(4-(Adamantan-1-yl)-2-methylphenoxy)acetamido)-N,N,N-trimethylethanaminium iodide], the inhibition at 10 µM was 26 to 50%.
On to `C[N+]1(C)CCN(C(=O)CCOc2ccc(C34CC5CC(CC(C5)C3)C4)cc2)CC1` [Compound I-18, 4-(3-(4-(Adamantan-1-yl)phenoxy)propanoyl)-1,1-dimethylpiperazin-1-ium iodide], for which the inhibition at 10 µM fell in the range of 26 to 50%.
As for `Cc1cc(C23CC4CC(CC(C4)C2)C3)ccc1OCCC(=O)N1CC[N+](C)(C)CC1` [Compound I-20, 4-(3-(4-(Adamantan-1-yl)-2-methylphenoxy)propanoyl)-1,1-dimethylpiperazin-1-ium iodide], the inhibition at 10 µM is 76 to 100%.
As for `Cc1cc(C23CC4CC(CC(C4)C2)C3)ccc1OCCC(=O)NCC[N+](C)(C)C` [Compound I-21, 2-(3-(4-(Adamantan-1-yl)-2-methylphenoxy)propanamido)-N,N,N-trimethylethanaminium iodide], the inhibition at 10 µM was in the range of 26 to 50%.
Still for that read-out and setting: the value for `CN1CCN(C(=O)COc2ccc(C34CC5CC(CC(C5)C3)C4)cc2F)CC1` [Compound I-25, 2-(4-(Adamantan-1-yl)-2-fluorophenoxy)-1-(4-methylpiperazin-1-yl)ethanone] was 51 to 75%; that for `O=C(COc1ccc(C23CC4CC(CC(C4)C2)C3)cc1)NCc1ccco1` [Compound I-26, 2-(4-(Adamantan-1-yl)phenoxy)-N-(furan-2-ylmethyl)acetamide] was 76 to 100%; that for `O=C(COc1ccc(C23CC4CC(CC(C4)C2)C3)cc1)N1CCN(Cc2ccc(C(F)(F)F)cc2)CC1` [Compound I-27, 2-(4-(Adamantan-1-yl)phenoxy)-1-(4-(4-(trifluoromethyl)benzyl)piperazin-1-yl)ethanone] was 76 to 100%.
The same measure, in the same setting: the value for `CC(C)N1CCN(C(=O)COc2ccc(C34CC5CC(CC(C5)C3)C4)cc2)CC1` [Compound I-28, 2-(4-(Adamantan-1-yl)phenoxy)-1-(4-isopropylpiperazin-1-yl)ethanone] was 51 to 75%.
Still for that read-out and setting: the value for `CC(C)(C)OC(=O)N1CCN(C(=O)COc2ccc(C34CC5CC(CC(C5)C3)C4)cc2)CC1` [Compound I-29, tert-Butyl 4-(2-(4-(adamantan-1-yl)phenoxy)acetyl)piperazine-1-carboxylate] was 51 to 75%; that for `O=C(COc1ccc(C23CC4CC(CC(C4)C2)C3)cc1)N1CCNCC1` [Compound I-30, 2-(4-(Adamantan-1-yl)phenoxy)-1-(piperazin-1-yl)ethanone] was 76 to 100%; that for `C[C@H]1CN(C(=O)OC(C)(C)C)CCN1C(=O)COc1ccc(C23CC4CC(CC(C4)C2)C3)cc1` [Compound I-31, (S)-tert-Butyl 4-(2-(4-(adamantan-1-yl)phenoxy)acetyl)-3-methylpiperazine-1-carboxylate] was 76 to 100%.
Regarding `C[C@H]1CNCCN1C(=O)COc1ccc(C23CC4CC(CC(C4)C2)C3)cc1` [Compound I-32, 2-(4-(Adamantan-1-yl)phenoxy)-1-((S)-2-methylpiperazin-1-yl)ethanone], the inhibition at 10 µM is 76 to 100%.
The same measure, in the same setting: next, `C[C@@H]1CN(C(=O)OC(C)(C)C)CCN1C(=O)COc1ccc(C23CC4CC(CC(C4)C2)C3)cc1` [Compound I-33, (R)-tert-Butyl 4-(2-(4-(Adamantan-1-yl)phenoxy)acetyl)-3-methylpiperazine-1-carboxylate]: 76 to 100%; `C[C@@H]1CNCCN1C(=O)COc1ccc(C23CC4CC(CC(C4)C2)C3)cc1` [Compound I-34, 2-(4-(Adamantan-1-yl)phenoxy)-1-((R)-2-methylpiperazin-1-yl)ethanone]: 51 to 75%.
`O=C(COc1ccc(C23CC4CC(CC(C4)C2)C3)cc1)N1CCN(CCO)CC1` [Compound I-35, 2-(4-(Adamantan-1-yl)phenoxy)-1-(4-(2-hydroxyethyl)piperazin-1-yl)ethanone]: the inhibition at 10 µM was 26 to 50%.
With `C#CCN1CCN(C(=O)COc2ccc(C34CC5CC(CC(C5)C3)C4)cc2)CC1` [Compound I-36, 2-(4-(Adamantan-1-yl)phenoxy)-1-(4-(prop-2-yn-1-yl)piperazin-1-yl)ethanone], the inhibition at 10 µM lay in the range of 51 to 75%.
Still for that read-out and setting: the value for `CN1CCN(c2ccc(NC(=O)COc3ccc(C45CC6CC(CC(C6)C4)C5)cc3)cc2)CC1` [Compound I-37, 2-(4-(Adamantan-1-yl)phenoxy)-N-(4-(4-methylpiperazin-1-yl)phenyl)acetamide] was 1 to 25%; that for `O=C(COc1ccc(C23CC4CC(CC(C4)C2)C3)cc1)Nc1ccc(N2CCS(=O)(=O)CC2)cc1` [Compound I-38, 2-(4-(Adamantan-1-yl)phenoxy)-N-(4-(1,1-dioxidothiomorpholino)phenyl)acetamide] was 51 to 75%.
Same read-out and setting: next, `O=C(COc1ccc(C23CC4CC(CC(C4)C2)C3)cc1)N1CCn2c(nnc2C(F)(F)F)C1` [Compound I-39, 2-(4-(Adamantan-1-yl)phenoxy)-1-(3-(trifluoromethyl)-5,6-dihydro-[1,2,4]triazolo[4,3-a]pyrazin-7(8H)-yl)ethanone]: 26 to 50%.
Turning to `O=C(COc1ccc(C23CC4CC(CC(C4)C2)C3)cc1)NC12CC3CC(CC(C3)C1)C2` [Compound I-40, N-(adamantan-1-yl)-2-(4-(adamantan-1-yl)phenoxy)acetamide], the inhibition at 10 µM lay within 1 to 25%.
Still for that read-out and setting: next, `O=C(COc1ccc(C23CC4CC(CC(C4)C2)C3)cc1)NC12CC3CC(CC(O)(C3)C1)C2` [Compound I-41, 2-(4-(Adamantan-1-yl)phenoxy)-N-(3-hydroxyadamantan-1-yl)acetamide]: 76 to 100%; `CN1CCN(C(=O)COc2ccc(C34CC5CC(CC(C5)C3)C4)cc2Cl)CC1` [Compound I-42, 2-(4-(Adamantan-1-yl)-2-chlorophenoxy)-1-(4-methylpiperazin-1-yl)ethanone]: 51 to 75%.
